The subject of this assay is L1210 leukemia ip in BDF1 mice, survival T/C. Kind of assay: NCI In Vivo Anticancer Drug Screen. Data for tumor model L1210 Leukemia (intraperitoneal) in B6D2F1 (BDF1) mice. The conditions noted are these: endpoint: mean survival time, higher = longer survival. The procedure, abridged:
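Tumor was transplanted into mice, which were then dosed with test compound or vehicle alone. Survival was recorded for each group, and the treated figure was expressed relative to the control figure.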

[1] abbreviates: dose: 100.0 mg/kg/injection, schedule: Q01DX009 (ip), vehicle: Klucel (hydroxypropylcellulose) (HPC).
Where [2] appears, read: dose: 200.0 mg/kg/injection, schedule: Q01DX009 (ip), vehicle: Klucel (hydroxypropylcellulose) (HPC).
Where [3] appears, read: dose: 400.0 mg/kg/injection, schedule: Q01DX009 (ip), vehicle: Klucel (hydroxypropylcellulose) (HPC).
Setting [4] is: dose: 100.0 mg/kg/injection, schedule: Q01DX009 (ip), vehicle: saline with Tween-80.
The mark [5] stands for this setting: dose: 200.0 mg/kg/injection, schedule: Q01DX009 (ip), vehicle: saline with Tween-80.
[6] abbreviates: dose: 50.0 mg/kg/injection, schedule: Q01DX001 (ip), vehicle: saline with Tween-80.
The mark [7] stands for this setting: dose: 400.0 mg/kg/injection, schedule: Q04DX002 (ip), vehicle: saline with Tween-80.
Setting [8] is: dose: 100.0 mg/kg/injection, schedule: Q04DX003 (ip), vehicle: saline with Tween-80.
The mark [9] stands for this setting: dose: 200.0 mg/kg/injection, schedule: Q04DX003 (ip), vehicle: saline with Tween-80.
Where [10] appears, read: dose: 400.0 mg/kg/injection, schedule: Q01DX009 (ip), vehicle: saline with Tween-80.
The mark [11] stands for this setting: dose: 400.0 mg/kg/injection, schedule: Q04DX003 (ip), vehicle: saline with Tween-80.
The mark [12] stands for this setting: dose: 100.0 mg/kg/injection, schedule: Q04DX003 (ip), vehicle: Klucel (hydroxypropylcellulose) (HPC).
The mark [13] stands for this setting: dose: 200.0 mg/kg/injection, schedule: Q04DX003 (ip), vehicle: Klucel (hydroxypropylcellulose) (HPC).
Where [14] appears, read: dose: 400.0 mg/kg/injection, schedule: Q04DX003 (ip), vehicle: Klucel (hydroxypropylcellulose) (HPC).

“And” between values parts separate entries of the source, which are not always exact repeats. Equal values may be shown once. Inconclusive results and toxic doses are left out. Square brackets hold non-standard residues; d marks the D form. Peptide text beside a SMILES is read from it. * marks the point of attachment. ξ: configuration not given here. Cbz = O=C(OCc1ccccc1)*; OBn = c1ccc(CO*)cc1; ξP = O=C(O)C1CCCN1; For = O=C*

In the case of `COc1ccc(C)cc1NC(=O)Nc1cccc(F)c1`, the T/C reads like this: under setting [1], 106 % of control; under setting [2], 111 % of control; under setting [3], 106 % of control.
As for `CO[As](OC)c1ccc(N=Nc2ccc(N(C)C)cc2)cc1`, the T/C (dose: 1.56 mg/kg/injection, schedule: Q04DX003 (ip), vehicle: Klucel (hydroxypropylcellulose) (HPC)) was 100 % of control; the T/C (dose: 3.13 mg/kg/injection, schedule: Q04DX003 (ip), vehicle: Klucel (hydroxypropylcellulose) (HPC)) was 100 % of control; the T/C (dose: 6.25 mg/kg/injection, schedule: Q04DX003 (ip), vehicle: Klucel (hydroxypropylcellulose) (HPC)) was 92 % of control.
With `C1=C2NNC(c3ccccc3)=C(c3ccccc3)C2=CCC1` (tested in a mixture with another compound), the T/C (dose: 50.0 mg/kg/injection, schedule: Q01DX009 (ip), vehicle: Klucel (hydroxypropylcellulose) (HPC)) was 94 % of control; the T/C under setting [1] is 90 % of control; the T/C under setting [2] was 90 % of control.
On to `COc1cc2c(cc1OC)C(CC1=CCN3CCC4=C(C=CCC4)C3C1)NCC2` (stereo not drawn), for which the T/C by setting is: (dose: 4.0 mg/kg/injection, schedule: Q04DX003 (ip), vehicle: water) 106 % of control; (dose: 8.0 mg/kg/injection, schedule: Q04DX003 (ip), vehicle: water) 101 % of control; (dose: 16.0 mg/kg/injection, schedule: Q04DX003 (ip), vehicle: water) 102 % of control; (dose: 32.0 mg/kg/injection, schedule: Q04DX003 (ip), vehicle: water) 101 % of control; (dose: 64.0 mg/kg/injection, schedule: Q04DX003 (ip), vehicle: water) 112 % of control.
Regarding `CC(C)Nc1c(C(=O)c2ccccc2)cn(C(C)C)c1-c1ccccc1`, the T/C is, setting by setting: (dose: 50.0 mg/kg/injection, schedule: Q01DX009 (ip), vehicle: saline with Tween-80) 94 % of control; under setting [4], 91 % of control; under setting [5], 88 % of control.
With `CCN1C(=O)C(Cl)=C(Cl)C1=O`, the T/C is 94 % of control (dose: 1.56 mg/kg/injection, schedule: Q01DX009 (ip), vehicle: saline with Tween-80); 91 % of control (dose: 3.13 mg/kg/injection, schedule: Q01DX009 (ip), vehicle: saline with Tween-80); 92 % of control and 87 % of control (dose: 6.25 mg/kg/injection, schedule: Q01DX009 (ip), vehicle: saline with Tween-80).
Regarding `N#CCN(CC#N)CCCN(CC#N)CCCN(CC#N)CC#N`, the T/C reads like this: (dose: 12.5 mg/kg/injection, schedule: Q01DX001 (ip), vehicle: saline with Tween-80) 97 % of control; (dose: 25.0 mg/kg/injection, schedule: Q01DX001 (ip), vehicle: saline with Tween-80) 108 % of control; under setting [6], 102 % of control.
For the molecule `Oc1ccc2ccccc2c1-c1nc2ccccc2s1`, the T/C (dose: 25.0 mg/kg/injection, schedule: Q04DX003 (ip), vehicle: other) was 94 % of control and 111 % of control; the T/C (dose: 50.0 mg/kg/injection, schedule: Q04DX003 (ip), vehicle: other) is 97 % of control and 88 % of control; the T/C (dose: 100.0 mg/kg/injection, schedule: Q04DX003 (ip), vehicle: other) was 91 % of control.
On to `COc1ccc(N=CN(C)C)nn1`, for which the T/C reads like this: (dose: 100.0 mg/kg/injection, schedule: Q04DX002 (ip), vehicle: saline with Tween-80) 91 % of control; (dose: 200.0 mg/kg/injection, schedule: Q04DX002 (ip), vehicle: saline with Tween-80) 97 % of control; under setting [7], 97 % of control.
As to `CCCCP(=O)(CCCC)Oc1cccc([N+](=O)[O-])c1`, the T/C runs as follows: (dose: 25.0 mg/kg/injection, schedule: Q04DX003 (ip), vehicle: saline with Tween-80) 97 % of control; (dose: 50.0 mg/kg/injection, schedule: Q04DX003 (ip), vehicle: saline with Tween-80) 96 % of control; under setting [8], 95 % of control and 102 % of control.
With `O=P(Cc1ccccc1)(Cc1ccccc1)Cc1ccccc1`, the T/C is 100 % of control under setting [1], 91 % of control under setting [2] and 96 % of control under setting [3].
On to `COC(=O)C(CC(C)C)NC(=O)C(Cc1ccc(O)cc1)NC=O` (stereo not drawn) (For-Tyr-Leu-OMe; configuration not given here), for which the T/C reads like this: under setting [4], 94 % of control; under setting [8], 110 % of control; under setting [5], 95 % of control; under setting [9], 102 % of control; under setting [10], 92 % of control; under setting [11], 96 % of control.
For the molecule `Cc1ccc(NCc2ccc(N(C)C)cc2)cc1`, the T/C by setting is: under setting [12], 99 % of control; under setting [13], 91 % of control; under setting [14], 93 % of control.
For the molecule `Nc1cc(/C=C/c2ccc(/C=C/c3ccc(S(=O)(=O)F)cc3)cc2)nc(N)n1`, the T/C reads like this: under setting [6], 87 % of control; (dose: 100.0 mg/kg/injection, schedule: Q01DX001 (ip), vehicle: saline with Tween-80) 92 % of control.
For `NOCc1csc(NC(=O)Nc2ccccc2)n1`, the T/C is, setting by setting: (dose: 18.8 mg/kg/injection, schedule: Q01DX009 (ip), vehicle: saline with Tween-80) 95 % of control; (dose: 37.5 mg/kg/injection, schedule: Q01DX009 (ip), vehicle: saline with Tween-80) 103 % of control; (dose: 75.0 mg/kg/injection, schedule: Q01DX009 (ip), vehicle: saline with Tween-80) 105 % of control.
`O=C(NCCN1CCOCC1)c1ccc(C(=O)NCCN2CCOCC2)cc1`: the T/C reads like this: (dose: 100.0 mg/kg/injection, schedule: Q01DX001 (ip), vehicle: saline) 103 % of control; (dose: 200.0 mg/kg/injection, schedule: Q01DX001 (ip), vehicle: saline) 105 % of control; (dose: 400.0 mg/kg/injection, schedule: Q01DX001 (ip), vehicle: saline) 100 % of control.
As to `COCCCNc1ccc(S(=O)(=O)c2ccc(N)cc2)cc1`, the T/C is, setting by setting: under setting [4], 103 % of control; under setting [5], 95 % of control; under setting [10], 97 % of control.
For the molecule `S=C=NCc1ccc(Cl)cc1`, the T/C was 103 % of control (dose: 6.25 mg/kg/injection, schedule: Q01DX009 (ip), vehicle: Klucel (hydroxypropylcellulose) (HPC)); 92 % of control (dose: 12.5 mg/kg/injection, schedule: Q01DX009 (ip), vehicle: Klucel (hydroxypropylcellulose) (HPC)); 95 % of control (dose: 25.0 mg/kg/injection, schedule: Q01DX009 (ip), vehicle: Klucel (hydroxypropylcellulose) (HPC)).
For `CN(N=O)C(=O)Nc1ccc(NC(=O)N(C)N=O)cc1`, the T/C runs as follows: (dose: 30.0 mg/kg/injection, schedule: Q01DX Z (ip), vehicle: carboxymethylcellulose (CMC)) 162 % of control; (dose: 40.0 mg/kg/injection, schedule: Q01DX Z (ip), vehicle: carboxymethylcellulose (CMC)) 151 % of control; (dose: 45.0 mg/kg/injection, schedule: Q01DX001 (ip), vehicle: carboxymethylcellulose (CMC)) 120 % of control; (dose: 50.0 mg/kg/injection, schedule: Q01DX Z (ip), vehicle: carboxymethylcellulose (CMC)) 97 % of control; (dose: 360.0 mg/kg/injection, schedule: Q01DX001 (ip), vehicle: carboxymethylcellulose (CMC)) 91 % of control.
For the molecule `COc1ccc(S(=O)Nc2ccccc2)cc1` (stereo not drawn), the T/C is 108 % of control (dose: 25.6 mg/kg/injection, schedule: Q04DX002 (ip), vehicle: saline with Tween-80); 115 % of control (dose: 64.0 mg/kg/injection, schedule: Q04DX002 (ip), vehicle: saline with Tween-80); 101 % of control (dose: 160.0 mg/kg/injection, schedule: Q04DX002 (ip), vehicle: saline with Tween-80); 112 % of control under setting [7]; 95 % of control under setting [11].
In the case of `O=C(O)c1cscc1-c1cccc2ccccc12`, the T/C by setting is: under setting [8], 91 % of control; under setting [9], 98 % of control.
For the molecule `CCC[CH2][Sn]([I])([CH2]I)[CH2]CCC`, the T/C is 112 % of control (dose: 6.25 mg/kg/injection, schedule: Q04DX002 (ip), vehicle: saline with Tween-80) and 112 % of control (dose: 12.5 mg/kg/injection, schedule: Q04DX002 (ip), vehicle: saline with Tween-80).
For the molecule `O=C(CNC(=O)OCc1ccccc1)NCC(=O)N1CCCC1C(=O)OCc1ccccc1` (stereo not drawn) (Cbz-Gly-Gly-[ξP]-OBn), the T/C is 101 % of control under setting [12], 103 % of control under setting [13] and 100 % of control under setting [14].
Regarding `O=C1CC2=CC3C=CC(N1)C2C=C3` (stereo not drawn), the T/C under setting [8] was 109 % of control, the T/C under setting [9] was 106 % of control and the T/C under setting [11] is 109 % of control.

Values taken from PubChem BioAssay AID248 (DTP/NCI, 2004).
